Measurements from paper PMC8187357 (Communications Biology, 2021).
Several values for one entry are separate records, joined by “and”; a condition that tells them apart may be missing. Equal entries are not always repeated.

Experiments:
MC38 tumor bearing mice = experiment: Immune pharmacodynamics in MC38 model; assay type: in vivo, mouse; settings: CA-170, 10 mg/kg, individual animals
From the text: For the measurement of immune pharmacodynamics, CT26 cells were subcutaneously implanted into 5 to 7 weeks old male Balb/c mice by injecting 1 million CT26 tumor cells/ animal. When tumor volume reached ~200mm^3, animals were randomized and allocated to three treatment groups (n = 5). Similarly, for the measurement of immune pharmacodynamics in MC38 model, MC38 cell lines were subcutaneously implanted into 5 to 7 weeks old male C57B6 mice by injecting 0.5 million cells/animal. Dosing was initiated when tumor volume reached ~100 mm^3. In both tumor models, mice were orally treated daily with vehicle and CA-170 (10 mg/kg) for 5 days. As an additional control, anti-PD1 antibody (100 μg/animal, clone J43) was dosed intraperitoneally on day 1. After 24 h of last dosing, animals were sacrificed, and blood samples and tumor tissues were collected from each animal and processed for PD evaluation using antibodies shown in Supplementary Table 1 and specific methods reported in publication[51] and analyzed by FACS. The gating strategy is detailed in Supplementary Fig. 3.

[1] = tested on: Adrenergic α1, α2, β1, β2; experiment: CEREP 80 panel binding: Adrenergic; settings: 10 µM
Description: CEREP 80 panel assay was carried out by Eurofins Cerep Panlabs facility at France. A series of binding assays was carried out to understand the off-target toxicity of CA-170. CA-170 was tested at 10 μM test concentration in duplicates. Compound binding was calculated as a % inhibition of the binding of a radioactively labeled ligand specific for each target. In each experiment the respective reference compound was tested concurrently with CA-170, and the data were compared with historical values determined at Eurofins. The experiment was accepted in accordance with Eurofins validation standard operating procedure. The results are expressed as a percent of control specific binding; (measured specific binding / control specific binding) × 100 and as a percent inhibition of control specific binding; 100−(measured specific binding / control specific binding) × 100 obtained in the presence of CA-170. The IC50 values (concentration causing a half-maximal inhibition of control specific binding) and Hill coefficients (nH) were determined by non-linear regression analysis of the competition curves generated with mean replicate values using Hill equation curve fitting.

C[C@@H](O)[C@H](NC(=O)N[C@@H](CC(N)=O)c1nc([C@@H](N)CO)no1)C(=O)O [CA-170]
CD8+ GNZ+ T cells in Tumor % Lymphocytes, CD3+, CD8+ T cells (MC38 tumor bearing mice): 52.4% and 36.3% and 28.5% and 36.2% and 20.1% | CD8+ IFN-γ+ T cells in Blood % Lymphocytes, CD3+, CD8+ T cells (MC38 tumor bearing mice): 1.71% and 2.24% and 2.27% and 1.35% and 2.63% | CD8+ IFN-γ+ T cells in Tumor % Lymphocytes, CD3+, CD8+ T cells (MC38 tumor bearing mice): 64.9% and 53.2% and 43.5% and 48.8% and 40.7% | % Inhibition of Control Specific Binding [1]: ≤ 6%
